Reference: the NIST ThermoML archive (doi:10.1021/je900596d)
Numbers after ± are expanded uncertainties.

Details: 355.18 K, Liquid, Vibrating tube method

For `FC(F)=C(F)C(F)(F)F` [hexafluoropropene], the mass density (3539.3 kPa) was 945.7 ± 1.2 kg/m3, the mass density (3560.5 kPa) was 947.64 ± 1.2 kg/m3 and the mass density (3582.1 kPa) was 949.46 ± 1.1 kg/m3. It also gave a mass density (3603.9 kPa) of 951.17 ± 1.1 kg/m3, a mass density (3625.9 kPa) of 953.18 ± 1.1 kg/m3 and a mass density (3667.2 kPa) of 956.48 ± 1.1 kg/m3. It also gave a mass density (3687.7 kPa) of 958.15 ± 1.1 kg/m3, a mass density (3708.3 kPa) of 959.83 ± 1.1 kg/m3 and a mass density (3730.3 kPa) of 961.36 ± 1.1 kg/m3. It also gave a mass density (3751.6 kPa) of 963.12 ± 1.1 kg/m3, a mass density (3773.4 kPa) of 964.61 ± 1.1 kg/m3 and a mass density (3795.3 kPa) of 966.25 ± 1.1 kg/m3. For the same compound, the mass density (3807.5 kPa) was 967.13 ± 1.1 kg/m3, the mass density (3828.9 kPa) was 968.54 ± 1.1 kg/m3 and the mass density (3851.4 kPa) was 970.11 ± 1.1 kg/m3. The mass density (3873.7 kPa) was 971.7 ± 1.1 kg/m3, the mass density (3916.8 kPa) was 974.54 ± 1.1 kg/m3 and the mass density (3938.9 kPa) was 976.09 ± 1.1 kg/m3. For the same compound, the mass density (3959.3 kPa) was 977.28 ± 1.1 kg/m3, the mass density (3981 kPa) was 978.83 ± 1.1 kg/m3 and the mass density (4015.2 kPa) was 980.9 ± 1.1 kg/m3. The mass density (4033.6 kPa) was 981.94 ± 1.1 kg/m3, the mass density (4071.4 kPa) was 984.1 ± 1.1 kg/m3 and the mass density (4091.9 kPa) was 985.37 ± 1.1 kg/m3. It also gave a mass density (4110.7 kPa) of 986.72 ± 1.1 kg/m3, a mass density (4129.8 kPa) of 987.54 ± 1.1 kg/m3 and a mass density (4149.4 kPa) of 988.81 ± 1.1 kg/m3. For the same compound, the mass density (4167.6 kPa) was 989.92 ± 1.1 kg/m3, the mass density (4186.6 kPa) was 990.96 ± 1.1 kg/m3 and the mass density (4206.8 kPa) was 992.1 ± 1.1 kg/m3. It also gave a mass density (4226.2 kPa) of 992.98 ± 1.1 kg/m3, a mass density (4244.6 kPa) of 994.12 ± 1.1 kg/m3 and a mass density (4263.6 kPa) of 995.02 ± 1.1 kg/m3. The mass density (4281.8 kPa) was 995.99 ± 1.1 kg/m3, the mass density (4338 kPa) was 998.86 ± 1.1 kg/m3 and the mass density (4375.5 kPa) was 1000.94 ± 1.1 kg/m3. The mass density (4413 kPa) was 1002.73 ± 1.1 kg/m3, the mass density (4449.8 kPa) was 1004.57 ± 1.1 kg/m3 and the mass density (4487.2 kPa) was 1006.43 ± 1.1 kg/m3. For the same compound, the mass density (4525 kPa) was 1008.13 ± 1.1 kg/m3, the mass density (4562.1 kPa) was 1009.97 ± 1.1 kg/m3 and the mass density (4599 kPa) was 1011.6 ± 1.1 kg/m3. The mass density (4638.8 kPa) was 1013.65 ± 1.1 kg/m3, the mass density (4677.4 kPa) was 1015.25 ± 1.1 kg/m3 and the mass density (4716.6 kPa) was 1016.92 ± 1.1 kg/m3. It also gave a mass density (4794.9 kPa) of 1020.36 ± 1.1 kg/m3, a mass density (4873.9 kPa) of 1023.7 ± 1.1 kg/m3 and a mass density (4913.4 kPa) of 1025.32 ± 1.1 kg/m3. The mass density (4951 kPa) was 1026.84 ± 1.1 kg/m3, the mass density (4991.2 kPa) was 1028.51 ± 1.1 kg/m3 and the mass density (5029.8 kPa) was 1029.94 ± 1.1 kg/m3. It also gave a mass density (5070.6 kPa) of 1031.42 ± 1.1 kg/m3, a mass density (5113 kPa) of 1033.05 ± 1.1 kg/m3 and a mass density (5154.1 kPa) of 1034.66 ± 1.1 kg/m3. For the same compound, the mass density (5236.8 kPa) was 1037.65 ± 1.1 kg/m3, the mass density (5275.8 kPa) was 1039.14 ± 1.1 kg/m3 and the mass density (5316.9 kPa) was 1040.61 ± 1.1 kg/m3. For the same compound, the mass density (5355.6 kPa) was 1041.9 ± 1.1 kg/m3, the mass density (5398.7 kPa) was 1043.42 ± 1.1 kg/m3 and the mass density (5439.2 kPa) was 1044.89 ± 1.1 kg/m3. For the same compound, the mass density (5483.2 kPa) was 1046.3 ± 1.1 kg/m3, the mass density (5561 kPa) was 1048.84 ± 1.1 kg/m3 and the mass density (5601.4 kPa) was 1050.18 ± 1.1 kg/m3. It also gave a mass density (5642.3 kPa) of 1051.53 ± 1.1 kg/m3, a mass density (5684.6 kPa) of 1052.92 ± 1.1 kg/m3 and a mass density (5724.6 kPa) of 1054.21 ± 1.1 kg/m3. For the same compound, the mass density (5768.2 kPa) was 1055.5 ± 1.1 kg/m3, the mass density (5808.2 kPa) was 1056.73 ± 1.1 kg/m3 and the mass density (5848.7 kPa) was 1058.05 ± 1.1 kg/m3. The mass density (5893.8 kPa) was 1059.3 ± 1.1 kg/m3, the mass density (5935.5 kPa) was 1060.51 ± 1.1 kg/m3 and the mass density (5972.8 kPa) was 1061.59 ± 1.1 kg/m3. For the same compound, the mass density (6013.5 kPa) was 1062.81 ± 1.1 kg/m3, the mass density (6113.5 kPa) was 1065.75 ± 1.1 kg/m3 and the mass density (6163.2 kPa) was 1067.09 ± 1.1 kg/m3. The mass density (6213.3 kPa) was 1068.54 ± 1.1 kg/m3, the mass density (6263.6 kPa) was 1069.94 ± 1.1 kg/m3 and the mass density (6313.1 kPa) was 1071.25 ± 1.1 kg/m3. For the same compound, the mass density (6362.4 kPa) was 1072.65 ± 1.1 kg/m3, the mass density (6411 kPa) was 1074 ± 1.1 kg/m3 and the mass density (6461.2 kPa) was 1075.29 ± 1.1 kg/m3. The mass density (6562.7 kPa) was 1077.95 ± 1.1 kg/m3, the mass density (6611.5 kPa) was 1079.21 ± 1.1 kg/m3 and the mass density (6661.1 kPa) was 1080.53 ± 1.1 kg/m3. The mass density (6710.9 kPa) was 1081.81 ± 1.1 kg/m3, the mass density (6761.1 kPa) was 1083.05 ± 1.1 kg/m3 and the mass density (6812.8 kPa) was 1084.3 ± 1.1 kg/m3. For the same compound, the mass density (6865.2 kPa) was 1085.67 ± 1.1 kg/m3, the mass density (6915.7 kPa) was 1086.78 ± 1.1 kg/m3 and the mass density (6965.9 kPa) was 1088.01 ± 1.1 kg/m3. For the same compound, the mass density (7014.9 kPa) was 1089.29 ± 1.1 kg/m3, the mass density (7065.8 kPa) was 1090.44 ± 1.1 kg/m3 and the mass density (7164.6 kPa) was 1092.85 ± 1.1 kg/m3. It also gave a mass density (7216.4 kPa) of 1093.92 ± 1.1 kg/m3, a mass density (7265.8 kPa) of 1095.06 ± 1.1 kg/m3 and a mass density (7366.2 kPa) of 1097.33 ± 1.1 kg/m3. It also gave a mass density (7415.2 kPa) of 1098.43 ± 1.1 kg/m3, a mass density (7466 kPa) of 1099.6 ± 1.1 kg/m3 and a mass density (7516.3 kPa) of 1100.77 ± 1.1 kg/m3. The mass density (7566.3 kPa) was 1101.91 ± 1.1 kg/m3, the mass density (7616.2 kPa) was 1102.85 ± 1.1 kg/m3 and the mass density (7718.1 kPa) was 1105.05 ± 1.1 kg/m3. For the same compound, the mass density (7768.7 kPa) was 1106.11 ± 1.1 kg/m3, the mass density (7817.3 kPa) was 1107.12 ± 1.1 kg/m3 and the mass density (7868.8 kPa) was 1108.17 ± 1.1 kg/m3. The mass density (7921.6 kPa) was 1109.13 ± 1.1 kg/m3, the mass density (7971.5 kPa) was 1110.3 ± 1.1 kg/m3 and the mass density (8069.1 kPa) was 1112.3 ± 1.1 kg/m3. The mass density (8121.2 kPa) was 1113.23 ± 1.1 kg/m3, the mass density (8171.1 kPa) was 1114.28 ± 1.2 kg/m3 and the mass density (8220.8 kPa) was 1115.22 ± 1.1 kg/m3. For the same compound, the mass density (8273.9 kPa) was 1116.3 ± 1.1 kg/m3, the mass density (8324.3 kPa) was 1117.22 ± 1.2 kg/m3 and the mass density (8376.9 kPa) was 1118.25 ± 1.2 kg/m3. It also gave a mass density (8428.6 kPa) of 1119.32 ± 1.2 kg/m3, a mass density (8478.5 kPa) of 1120.28 ± 1.2 kg/m3 and a mass density (8528.9 kPa) of 1121.22 ± 1.2 kg/m3. It also gave a mass density (8578.5 kPa) of 1122.06 ± 1.2 kg/m3, a mass density (8628.9 kPa) of 1123.04 ± 1.2 kg/m3 and a mass density (8681.5 kPa) of 1124 ± 1.2 kg/m3. It also gave a mass density (8731.5 kPa) of 1124.98 ± 1.2 kg/m3, a mass density (8781.2 kPa) of 1125.78 ± 1.2 kg/m3 and a mass density (8835.2 kPa) of 1126.86 ± 1.2 kg/m3. The mass density (8886.8 kPa) was 1127.78 ± 1.2 kg/m3, the mass density (8989.2 kPa) was 1129.56 ± 1.2 kg/m3 and the mass density (9039.4 kPa) was 1130.46 ± 1.2 kg/m3. For the same compound, the mass density (9089.8 kPa) was 1131.27 ± 1.2 kg/m3, the mass density (9138.1 kPa) was 1132.17 ± 1.2 kg/m3 and the mass density (9187.7 kPa) was 1132.92 ± 1.2 kg/m3. For the same compound, the mass density (9238.4 kPa) was 1133.87 ± 1.2 kg/m3, the mass density (9290.5 kPa) was 1134.77 ± 1.2 kg/m3 and the mass density (9339.3 kPa) was 1135.6 ± 1.2 kg/m3. For the same compound, the mass density (9390.7 kPa) was 1136.39 ± 1.2 kg/m3 and the mass density (9440.4 kPa) was 1137.24 ± 1.2 kg/m3.
